Measured values taken from patent US8124610B2, “Sodium channel inhibitors” (Icagen Inc., priority 2007, dated 2012).

How the values were obtained:
[1] = biological target: T1, hSCN9A (Homo sapiens, UniProt Q15858); assay: Whole-cell patch-clamp electrophysiology (conventional or PatchXpress), HEK cells expressing hSCN9A, estimated IC-50; assay type: cell-based; conditions: Table V; estimated IC-50 from single point electrophysiology, cells clamped at V1/2; read-out: SCN9A EIC-50
T1 construct: expressed in transfected cells
T1 sequence (Q15858 whole entry): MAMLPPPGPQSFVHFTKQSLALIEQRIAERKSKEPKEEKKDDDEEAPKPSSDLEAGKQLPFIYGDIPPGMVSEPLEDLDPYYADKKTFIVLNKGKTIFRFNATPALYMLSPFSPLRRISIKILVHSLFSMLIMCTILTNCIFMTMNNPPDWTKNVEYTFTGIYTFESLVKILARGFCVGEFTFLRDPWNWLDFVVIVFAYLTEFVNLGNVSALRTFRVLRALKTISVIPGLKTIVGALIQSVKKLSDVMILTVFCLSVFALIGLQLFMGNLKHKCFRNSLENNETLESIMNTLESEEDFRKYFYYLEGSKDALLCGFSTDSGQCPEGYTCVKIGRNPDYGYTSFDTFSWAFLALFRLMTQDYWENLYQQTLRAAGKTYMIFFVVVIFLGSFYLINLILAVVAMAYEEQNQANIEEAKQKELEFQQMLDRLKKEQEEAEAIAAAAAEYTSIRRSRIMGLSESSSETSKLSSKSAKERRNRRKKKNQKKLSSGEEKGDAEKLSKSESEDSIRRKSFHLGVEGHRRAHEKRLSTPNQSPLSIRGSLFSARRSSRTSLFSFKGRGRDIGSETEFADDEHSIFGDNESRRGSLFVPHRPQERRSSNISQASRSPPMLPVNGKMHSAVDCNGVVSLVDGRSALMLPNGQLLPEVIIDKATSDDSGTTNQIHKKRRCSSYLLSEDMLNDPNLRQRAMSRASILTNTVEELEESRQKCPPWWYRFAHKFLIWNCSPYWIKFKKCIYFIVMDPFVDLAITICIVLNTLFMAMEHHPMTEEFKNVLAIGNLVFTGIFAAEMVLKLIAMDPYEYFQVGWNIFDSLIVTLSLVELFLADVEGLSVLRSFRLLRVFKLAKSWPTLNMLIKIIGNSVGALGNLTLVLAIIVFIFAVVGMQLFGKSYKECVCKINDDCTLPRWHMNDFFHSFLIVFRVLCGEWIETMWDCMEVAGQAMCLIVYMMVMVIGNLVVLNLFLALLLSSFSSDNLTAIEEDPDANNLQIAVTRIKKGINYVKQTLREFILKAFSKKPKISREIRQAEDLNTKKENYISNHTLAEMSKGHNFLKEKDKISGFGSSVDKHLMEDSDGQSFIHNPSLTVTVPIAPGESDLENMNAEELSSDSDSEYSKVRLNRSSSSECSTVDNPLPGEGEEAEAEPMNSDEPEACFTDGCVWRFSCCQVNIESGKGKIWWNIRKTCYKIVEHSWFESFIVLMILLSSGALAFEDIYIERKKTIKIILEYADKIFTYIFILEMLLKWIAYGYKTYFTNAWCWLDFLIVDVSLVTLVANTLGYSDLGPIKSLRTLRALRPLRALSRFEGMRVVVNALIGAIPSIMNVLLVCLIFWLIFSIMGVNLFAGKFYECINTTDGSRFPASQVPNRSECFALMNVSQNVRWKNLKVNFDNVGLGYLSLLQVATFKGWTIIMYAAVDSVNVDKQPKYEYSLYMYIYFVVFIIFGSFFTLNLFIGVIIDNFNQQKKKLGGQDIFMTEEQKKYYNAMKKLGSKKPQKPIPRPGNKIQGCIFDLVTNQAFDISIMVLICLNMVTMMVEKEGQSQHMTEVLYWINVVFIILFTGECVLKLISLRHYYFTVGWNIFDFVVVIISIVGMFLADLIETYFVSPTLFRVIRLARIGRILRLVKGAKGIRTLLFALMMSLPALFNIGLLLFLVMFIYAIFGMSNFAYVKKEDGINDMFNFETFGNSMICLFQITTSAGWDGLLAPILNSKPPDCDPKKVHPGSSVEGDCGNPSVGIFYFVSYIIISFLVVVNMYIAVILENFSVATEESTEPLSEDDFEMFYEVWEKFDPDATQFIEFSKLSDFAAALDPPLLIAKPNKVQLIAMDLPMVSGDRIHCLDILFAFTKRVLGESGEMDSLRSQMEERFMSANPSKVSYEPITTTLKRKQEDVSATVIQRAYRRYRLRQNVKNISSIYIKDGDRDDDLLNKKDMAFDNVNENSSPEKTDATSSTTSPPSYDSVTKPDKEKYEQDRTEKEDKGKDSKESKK
Summary of the method: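 Stably transfected HEK cells recorded by whole-cell voltage clamp (manual or PatchXpress) at 22–24 °C in pH 7.4 HEPES-buffered extracellular solution. Cells held at the empirically determined inactivation V1/2 after an 8 s prepulse, then stepped to 0 mV for 20 ms; % inhibition from current amplitude before vs after compound.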

[2] = biological target: T2, hSCN3A (Homo sapiens, UniProt Q9NY46); assay: Whole-cell patch-clamp electrophysiology (conventional or PatchXpress), HEK cells expressing hSCN3A, estimated IC-50; assay type: cell-based; conditions: Table V; estimated IC-50 from single point electrophysiology, cells clamped at V1/2; read-out: SCN3A EIC-50
T2 construct: expressed in transfected cells
T2 sequence (Q9NY46 whole entry): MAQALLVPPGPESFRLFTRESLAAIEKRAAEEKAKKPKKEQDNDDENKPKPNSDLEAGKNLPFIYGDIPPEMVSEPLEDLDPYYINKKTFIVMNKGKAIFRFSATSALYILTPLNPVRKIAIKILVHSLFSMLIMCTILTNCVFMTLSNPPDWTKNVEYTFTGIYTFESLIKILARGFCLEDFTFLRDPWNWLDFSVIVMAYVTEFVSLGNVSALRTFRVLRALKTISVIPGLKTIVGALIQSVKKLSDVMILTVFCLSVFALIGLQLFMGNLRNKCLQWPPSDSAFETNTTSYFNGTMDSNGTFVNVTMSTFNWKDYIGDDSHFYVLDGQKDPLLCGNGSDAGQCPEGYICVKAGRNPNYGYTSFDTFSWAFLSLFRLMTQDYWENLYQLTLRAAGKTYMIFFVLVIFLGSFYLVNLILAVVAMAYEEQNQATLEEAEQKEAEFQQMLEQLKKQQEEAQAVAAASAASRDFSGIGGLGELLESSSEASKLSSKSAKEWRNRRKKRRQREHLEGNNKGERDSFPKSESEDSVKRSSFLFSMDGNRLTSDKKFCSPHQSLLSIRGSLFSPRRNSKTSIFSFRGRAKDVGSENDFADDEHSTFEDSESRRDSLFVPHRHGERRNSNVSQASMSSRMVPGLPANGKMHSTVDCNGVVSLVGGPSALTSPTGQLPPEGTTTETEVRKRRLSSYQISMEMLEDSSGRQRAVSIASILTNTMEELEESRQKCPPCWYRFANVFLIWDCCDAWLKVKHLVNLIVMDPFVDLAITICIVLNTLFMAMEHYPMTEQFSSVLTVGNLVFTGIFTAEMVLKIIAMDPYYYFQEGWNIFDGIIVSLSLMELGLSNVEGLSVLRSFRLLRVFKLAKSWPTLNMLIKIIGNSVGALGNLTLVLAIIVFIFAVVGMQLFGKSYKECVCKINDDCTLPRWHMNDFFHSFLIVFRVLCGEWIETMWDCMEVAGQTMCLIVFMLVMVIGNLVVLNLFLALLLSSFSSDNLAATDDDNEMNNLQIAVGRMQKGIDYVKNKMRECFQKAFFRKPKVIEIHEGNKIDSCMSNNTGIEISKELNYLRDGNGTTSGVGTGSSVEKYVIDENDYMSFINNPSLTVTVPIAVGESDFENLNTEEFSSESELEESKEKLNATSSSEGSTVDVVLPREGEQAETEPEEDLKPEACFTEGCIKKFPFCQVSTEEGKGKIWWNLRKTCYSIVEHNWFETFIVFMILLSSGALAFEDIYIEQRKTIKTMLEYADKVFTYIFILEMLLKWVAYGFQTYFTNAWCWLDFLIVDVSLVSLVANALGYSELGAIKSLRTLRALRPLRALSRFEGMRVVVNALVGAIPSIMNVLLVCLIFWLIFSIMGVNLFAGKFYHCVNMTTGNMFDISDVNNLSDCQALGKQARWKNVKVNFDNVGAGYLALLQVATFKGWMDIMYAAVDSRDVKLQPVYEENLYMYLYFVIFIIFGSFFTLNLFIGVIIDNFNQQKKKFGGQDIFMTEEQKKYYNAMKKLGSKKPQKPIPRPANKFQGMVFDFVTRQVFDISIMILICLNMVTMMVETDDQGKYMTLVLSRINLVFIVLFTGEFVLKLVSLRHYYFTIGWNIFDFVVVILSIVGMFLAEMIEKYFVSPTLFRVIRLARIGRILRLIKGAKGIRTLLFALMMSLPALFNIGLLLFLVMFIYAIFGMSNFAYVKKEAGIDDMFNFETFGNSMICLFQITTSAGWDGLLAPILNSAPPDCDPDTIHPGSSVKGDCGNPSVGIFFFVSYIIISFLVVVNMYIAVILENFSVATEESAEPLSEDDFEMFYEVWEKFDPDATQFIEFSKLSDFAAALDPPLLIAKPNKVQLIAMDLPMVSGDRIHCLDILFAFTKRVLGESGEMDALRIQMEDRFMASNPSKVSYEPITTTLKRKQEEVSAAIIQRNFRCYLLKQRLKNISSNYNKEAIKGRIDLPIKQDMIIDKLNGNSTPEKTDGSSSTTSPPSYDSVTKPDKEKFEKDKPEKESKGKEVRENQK
Description: Human Embryonic Kidney (HEK) cells were transfected with hSCN3A or hSCN9A constructs using lipofectamine reagent (Invitrogen), using standard techniques. Cells stably expressing the hSCN3A or hSCN9A constructs were identified by their resistance to G-418 (400 μg/ml). Clones were screened for expression using the whole-cell voltage-clamp technique. HEK cells stably transfected with hSCN3A or hSCN9A were maintained in DMEM medium supplemented with 10% heat-inactivated fetal bovine serum and 400 μg/ml G418 sulfate in an incubator at 37° C. with a humidified atmosphere of 10% CO2. For HTS, cells were harvested from flasks by trypsinization and replated in an appropriate multi-well plate (typically 96 or 384 wells/plate) such that confluence would be achieved within 24 hours of plating. For electrophysiological studies, cells were removed from the culture flask by brief trypsinization and replated at low density onto glass cover slips. Cells were typically used for electrophysiological experiments within 24 to 72 h after plating. Cover slips containing HEK cells expressing hSCN3A or hSCN9A were placed in a bath on the stage of an inverted microscope and perfused (approximately 1 ml/min) with extracellular solution of the following composition: 138 mM NaCl, 2 mM CaCl2, 5.4 mM KCl, 1 mM MgCl2, 10 mM glucose, and 10 mM HEPES, pH 7.4, with NaOH. […] All recordings were made at room temperature (22-24° C.) using AXOPATCH 200B amplifiers and PCLAMP software (Axon Instruments, Burlingame, Calif.) or PatchXpress 7000 hardware and associated software (Axon Instruments, Burlingame, Calif.). hSCN3A or hSCN9A currents in HEK cells were measured using the whole-cell configuration of the patch-clamp technique (Hamill et al., 1981). […] As a result, voltage errors were negligible and no correction was applied. Current records were acquired at 20 to 50 KHz and filtered at 5 to 10 KHz. HEK cells stably transfected with hSCN3A or hSCN9A were viewed under Hoffman contrast optics and placed in front of an array of flow pipes emitting either control or compound-containing extracellular solutions. All compounds were dissolved in dimethyl sulfoxide to make 10 mM stock solutions, which were then diluted into extracellular solution to attain the final concentrations desired. […] The voltage-dependence of inactivation was determined by applying a series of depolarizing prepulses (8 sec long in 10 mV increments) from a negative holding potential. The voltage was then immediately stepped to 0 mV to assess the magnitude of the sodium current. Currents elicited at 0 mV were plotted as a function of prepulse potential to allow estimation of the voltage midpoint of inactivation (V1/2). Cells were then voltage clamped at the empirically determined V1/2. Compounds were tested for their ability to inhibit hSCN3A or hSCN9A sodium channels by activating the channel with a 20 msec voltage step to 0 mV following an 8 second conditioning prepulse to the empirically determined V1-2 (Table B). Compound effect (% inhibition) was determined by difference in current amplitude before and after application of test compounds. […] In some cases electrophysiological assays were conducted with PatchXpress 7000 hardware and associated software (Molecular Devices Corp) (Table B). All assay buffers and solutions were identical to those used in conventional whole-cell voltage clamp experiments described above. hSCN3A or hSCN9A containing cells were grown as above to 50%-80% confluency and harvested by trypsinization. Trypsinized cells were washed and resuspended in extracellular buffer at a concentration of 1×10^6 cells/ml. The onboard liquid handling facility of the PatchXpress was used for dispensing cells and application of test compounds. Determination of the voltage midpoint of inactivation was as described for conventional whole-cell recordings. Cells were then voltage-clamped to the empirically determined V1/2 and current was activated by a 20 msec voltage step to 0 mV.

IC50 [1] | IC50 [2] | Compound
> 10 µM | < 2 µM | O=S(=O)(Nc1nccs1)c1ccc(Nc2nnc(Cc3ccc(C(F)(F)F)cc3)o2)cc1 [Compound 28, N-(thiazol-2-yl)-4-(5-(4-(trifluoromethyl)benzyl)-1,3,4-oxadiazol-2-ylamino)benzenesulfonamide]
< 2 µM | < 2 µM | Cn1nc(CC2CCCCC2)cc1Nc1ccc(S(=O)(=O)Nc2nccs2)cc1 [Compound 29, 4-(3-(cyclohexylmethyl)-1-methyl-1H-pyrazol-5-ylamino)-N-(thiazol-2-yl)benzenesulfonamide]
< 2 µM | < 2 µM | Cc1cc(Nc2ccc(S(=O)(=O)Nc3nccs3)c(F)c2)n(-c2ccccc2)n1 [Compound 30, 2-fluoro-4-(3-methyl-1-phenyl-1H-pyrazol-5-ylamino)-N-(thiazol-2-yl)benzenesulfonamide]
< 2 µM | < 2 µM | O=S(=O)(Nc1nccs1)c1ccc(Nc2ccn(Cc3ccc(Cl)cc3)n2)cc1F [Compound 31, 4-(1-(4-chlorobenzyl)-1H-pyrazol-3-ylamino)-2-fluoro-N-(thiazol-2-yl)benzenesulfonamide]
< 2 µM | < 2 µM | O=S(=O)(Nc1nccs1)c1ccc(Nc2cc(C3CC3)nn2-c2ccccc2)cc1F [Compound 32, 4-(3-cyclopropyl-1-phenyl-1H-pyrazol-5-ylamino)-2-fluoro-N-(thiazol-2-yl)benzenesulfonamide]
< 2 µM | < 2 µM | O=S(=O)(Nc1nccs1)c1ccc(Nc2cnn(Cc3ccc(Cl)cc3)c2)cc1F [Compound 33, 4-(1-(4-chlorobenzyl)-1H-pyrazol-4-ylamino)-2-fluoro-N-(thiazol-2-yl)benzenesulfonamide]
< 2 µM | < 2 µM | Cn1nc(CC(C)(C)C)cc1Nc1ccc(S(=O)(=O)Nc2nccs2)c(F)c1 [Compound 34, 2-fluoro-4-(1-methyl-3-neopentyl-1H-pyrazol-5-ylamino)-N-(thiazol-2-yl)benzenesulfonamide]
< 2 µM | < 2 µM | Cc1cc(Nc2ccc(S(=O)(=O)Nc3nccs3)cc2F)n(-c2ccccc2)n1 [Compound 35, 3-fluoro-4-(3-methyl-1-phenyl-1H-pyrazol-5-ylamino)-N-(thiazol-2-yl)benzenesulfonamide]
< 2 µM | < 2 µM | O=S(=O)(Nc1nccs1)c1ccc(Nc2cc(C3CC3)nn2-c2ccccc2)c(F)c1 [Compound 36, 4-(3-cyclopropyl-1-phenyl-1H-pyrazol-5-ylamino)-3-fluoro-N-(thiazol-2-yl)benzenesulfonamide]
< 2 µM | < 2 µM | O=S(=O)(Nc1nccs1)c1ccc(Nc2ccccc2-c2ccccc2)cc1F [Compound 37, 4-(Biphenyl-2-ylamino)-2-fluoro-N-thiazol-2-yl-benzenesulfonamide]

Further lines, the molecule ahead of its results:

Compound | IC50 [1] | IC50 [2]
CC(C)(C)c1csc(Nc2ccc(S(=O)(=O)Nc3nccs3)c3ccccc23)n1 [Compound 12, 4-(4-tert-Butyl-thiazol-2-ylamino)-naphthalene-1-sulfonic acid thiazol-2-ylamide] | 2 to 10 µM | < 2 µM
Cc1nc(Nc2ccc(S(=O)(=O)Nc3nccs3)c(F)c2)sc1C(C)(C)C [Compound 13, 4-(5-tert-butyl-4-methylthiazol-2-ylamino)-2-fluoro-N-(thiazol-2-yl)benzenesulfonamide] | < 2 µM | < 2 µM
CC(C)(C)c1csc(Nc2ccc(S(=O)(=O)Nc3nccs3)cc2)n1 [Compound 14, 4-(4-Tert-butyl-thiazol-2-ylamino)-N-thiazol-2-yl-benzenesulfonamide] | 2 to 10 µM | < 2 µM
CC(C)(C)n1nc(Cc2ccc(Cl)cc2)cc1Nc1ccc(S(=O)(=O)Nc2nccs2)cc1 [Compound 15, 4-(1-tert-butyl-3-(4-chlorobenzyl)-1H-pyrazol-5-ylamino)-N-(thiazol-2-yl)benzenesulfonamide] | < 2 µM | < 2 µM
O=S(=O)(Nc1nccs1)c1ccc(Nc2cc(Cc3ccc(Cl)cc3)n[nH]2)cc1 [Compound 16, 4-(3-(4-Chlorobenzyl)-1H-pyrazol-5-ylamino)-N-(thiazol-2-yl)benzenesulfonamide] | < 2 µM | < 2 µM
Cn1nc(C(C)(C)C)cc1Nc1ccc(S(=O)(=O)Nc2nccs2)cc1 [Compound 17, 4-(3-Tert-butyl-1-methyl-1H-pyrazol-5-ylamino)-N-(thiazol-2-yl)benzenesulfonamide] | 2 to 10 µM | < 2 µM
CC(C)(C)c1cc(Nc2ccc(S(=O)(=O)Nc3nccs3)cc2)no1 [Compound 18] | > 10 µM | < 2 µM
CC(C)(C)n1nc(Nc2ccc(S(=O)(=O)Nc3nccs3)cc2)nc1N [Compound 19, 4-(5-Amino-1-tert-butyl-1H-1,2,4-triazol-3-ylamino)-N-(thiazol-2-yl)benzenesulfonamide] | > 10 µM | < 2 µM
Cc1cc(Nc2ccc(S(=O)(=O)Nc3nccs3)cc2)n(-c2ccccc2)n1 [Compound 20, 4-(3-methyl-1-phenyl-1H-pyrazol-5-ylamino)-N-(thiazol-2-yl)benzenesulfonamide] | 2 to 10 µM | < 2 µM
Cn1nc(Cc2ccc(Cl)cc2)cc1Nc1ccc(S(=O)(=O)Nc2nccs2)cc1 [Compound 21, 4-(3-(4-Chlorobenzyl)-1-methyl-1H-pyrazol-5-ylamino)-N-(thiazol-2-yl)benzenesulfonamide] | < 2 µM | < 2 µM
CC(C)(C)c1cc(Nc2ccc(S(=O)(=O)Nc3nccs3)cc2)n(C(C)(C)C)n1 [Compound 22, 4-(1,3-di-tert-butyl-1H-pyrazol-5-ylamino)-N-(thiazol-2-yl)benzenesulfonamide] | 2 to 10 µM | 2 to 10 µM
CC(C)(C)c1cc(Nc2ccc(S(=O)(=O)Nc3nccs3)cc2)[nH]n1 [Compound 23, 4-(3-tert-butyl-1H-pyrazol-5-ylamino)-N-(thiazol-2-yl)benzenesulfonamide] | 2 to 10 µM | 2 to 10 µM
Nc1nc(Nc2ccc(S(=O)(=O)Nc3nccs3)cc2)nn1Cc1ccc(Cl)cc1 [Compound 24, 4-(5-amino-1-(4-chlorobenzyl)-1H-1,2,4-triazol-3-ylamino)-N-(thiazol-2-yl)benzenesulfonamide] | > 10 µM | 2 to 10 µM
N#Cc1cnn(-c2ccc(F)c(Cl)c2)c1Nc1ccc(S(=O)(=O)Nc2nccs2)cc1 [Compound 25, 4-(1-(3-chloro-4-fluorophenyl)-4-cyano-1H-pyrazol-5-ylamino)-N-(thiazol-2-yl)benzenesulfonamide] | > 10 µM | < 2 µM
CC(C)(C)n1nc(Cc2ccc(Cl)cc2)cc1Nc1ccc(S(=O)(=O)Nc2nccs2)c(F)c1 [Compound 26, 4-(1-tert-butyl-3-(4-chlorobenzyl)-1H-pyrazol-5-ylamino)-2-fluoro-N-(thiazol-2-yl)benzenesulfonamide] | < 2 µM | < 2 µM
O=S(=O)(Nc1nccs1)c1ccc(Nc2nnc(Cc3ccc(C(F)(F)F)cc3)s2)cc1 [Compound 27, N-(thiazol-2-yl)-4-(5-(4-(trifluoromethyl)benzyl)-1,3,4-thiadiazol-2-ylamino)benzenesulfonamide] | > 10 µM | < 2 µM
